Data on 41 molecules can be found in patent publication US20210251991A1, “SUBSTITUTED 2,2'-BIPYRIMIDINYL COMPOUNDS, ANALOGUES THEREOF, AND METHODS USING SAME” (priority 2018, published 2021).

pEC50: −log10 of the molar value.

The assay deals with HBsAg in HepG2.2.15 cells. Briefly: HBsAg assay: inhibition of HBsAg in HepG2.2.15 cells (chemiluminescence immunoassay of supernatant). In kind it is cell-based, hepatitis B virus. Conditions: Hepatitis B virus, HepG2.2.15, 144 h, read-out: sAg EC50, HepG2.2.15 cells, supernatant collected at day 6 after exposure, HBsAg CLIA. In outline: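 HepG2.2.15 cells treated with serially diluted compounds (0.5% DMSO), medium and compound refreshed after 2-3 days; supernatant HBsAg measured by chemiluminescence immunoassay at day 6. EC50 from dose-response curves; viability assessed in parallel by CellTiter-Glo.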
Usually pEC50 stands for the EC50 on a negative log10 scale, so that one unit is a factor of ten. On to `CCC1c2cc(OC)c(OC)cc2CN1c1ccnc(-c2ncccn2)n1` (centres unmarked) [Example 55, 2-([2,2′-Bipyrimidin]-4-yl)-1-ethyl-5,6-dimethoxyisoindoline], for which the pEC50 was 7.62.

As for `CCC1c2cc(OC)c(OC)cc2CN1c1nc(-c2ncccn2)ncc1C` (centres unmarked) [Example 58, 1-Ethyl-5,6-dimethoxy-2-(5-methyl-[2,2′-bipyrimidin]-4-yl)isoindoline], the pEC50 is 8.70.

`CCC1c2cc(OC)c(OC)cc2CN1c1nc(-c2ncccn2)ncc1NC` (centres unmarked) [Example 59, 4-(1-Ethyl-5,6-dimethoxyisoindolin-2-yl)-N-methyl-[2,2′-bipyrimidin]-5-amine]: the pEC50 is 6.89.

`CCC1c2cc(OC)c(OC)cc2CN1c1nc(-c2ncccn2)ncc1Cl` (centres unmarked) [Example 60, 2-(5-Chloro-[2,2′-bipyrimidin]-4-yl)-1-ethyl-5,6-dimethoxyisoindoline]: the negative-log EC50 (pEC50) was 8.52.

Consider `CCC1c2cc(OC)c(OC)cc2CN1c1nc(-c2ncccn2)ncc1C1CC1` (centres unmarked) [Example 61, 2-(5-Cyclopropyl-[2,2′-bipyrimidin]-4-yl)-1-ethyl-5,6-dimethoxyisoindoline], for which the negative-log EC50 (pEC50) is 7.85.

Regarding `CCC1c2cc(OC)c(OC)cc2CN1c1nc(-c2ncccn2)ncc1C(C)C` (centres unmarked) [Example 62, 1-Ethyl-2-(5-isopropyl-[2,2′-bipyrimidin]-4-yl)-5,6-dimethoxyisoindoline], the pEC50 is 6.00.

As for `CCC1c2cc(F)c(OC)cc2CN1c1ccnc(-c2ncccn2)n1` (centres unmarked) [Example 63, 2-([2,2′-Bipyrimidin]-4-yl)-1-ethyl-6-fluoro-5-methoxyisoindoline], the pEC50 is 7.68.

Regarding `CCC1c2cc(F)c(OC)cc2CN1c1nc(-c2ncccn2)ncc1F` (centres unmarked) [Example 70, 1-Ethyl-6-fluoro-2-(5-fluoro-[2,2′-bipyrimidin]-4-yl)-5-methoxyisoindoline], the pEC50 was 8.30.

For `CCC1c2cc(F)c(O)cc2CN1c1nc(-c2ncccn2)ncc1F` (centres unmarked) [Example 75, 1-Ethyl-6-fluoro-2-(5-fluoro-[2,2′-bipyrimidin]-4-yl)isoindolin-5-ol], the pEC50 is 6.15.

On to `CCC1c2cc(OC)c(F)cc2CN1c1ccnc(-c2ncccn2)n1` (centres unmarked) [Example 76, 2-([2,2′-Bipyrimidin]-4-yl)-1-ethyl-5-fluoro-6-methoxyisoindoline], for which the pEC50 is 6.92.

On to `c1cnc(-c2nccc(N3CC4CCC3c3ccccc34)n2)nc1` (centres unmarked) [Example 79, 10-([2,2′-Bipyrimidin]-4-yl)-1,2,3,4-tetrahydro-1,4-(epiminomethano)naphthalene], for which the pEC50 is 5.22.

Regarding `Fc1cnc(-c2ncccn2)nc1N1CC2CCC1c1ccccc12` (centres unmarked) [Example 80, 10-(5-Fluoro-[2,2′-bipyrimidin]-4-yl)-1,2,3,4-tetrahydro-1,4-(epiminomethano)naphthalene], the pEC50 was 6.15.

As to `Cc1cnc(-c2ncccn2)nc1N1CC2CCC1c1ccccc12` (centres unmarked) [Example 81, 10-(5-Methyl-[2,2′-bipyrimidin]-4-yl)-1,2,3,4-tetrahydro-1,4-(epiminomethano)naphthalene], the pEC50 was 6.55.

For `c1cnc(-c2nccc(N3C4CCC3c3ccccc34)n2)nc1` [Example 82, 9-([2,2′-Bipyrimidin]-4-yl)-1,2,3,4-tetrahydro-1,4-epiminonaphthalene], the pEC50 is 5.05.

Turning to `c1cnc(-c2nccc(N3CC4CC3c3ccccc34)n2)nc1` (centres unmarked) [Example 83, 2-([2,2′-Bipyrimidin]-4-yl)-1,2,3,4-tetrahydro-1,4-methanoisoquinoline], the pEC50 is 5.30.

`COc1cc2c(cc1OC)C1CCC2N1c1cnc(-c2ncccn2)nc1` [Example 84, 9-([2,2′-Bipyrimidin]-5-yl)-6,7-dimethoxy-1,2,3,4-tetrahydro-1,4-epiminonaphthalene]: the pEC50 was 5.40.

On to `Cc1cnc(-c2ncccn2)nc1N1C2CCC1c1ccccc12` [Example 85, 9-(5-Methyl-[2,2′-bipyrimidin]-4-yl)-1,2,3,4-tetrahydro-1,4-epiminonaphthalene], for which the pEC50 was 5.52.

Take `Fc1cnc(-c2ncccn2)nc1N1C2CCC1c1ccccc12` [Example 86, 9-(5-Fluoro-[2,2′-bipyrimidin]-4-yl)-1,2,3,4-tetrahydro-1,4-epiminonaphthalene]: the pEC50 is 5.62.

Consider `COc1cc2c(cc1OC)C1CCC2N1c1nc(-c2ncccn2)ncc1F` [Example 87, 9-(5-Fluoro-[2,2′-bipyrimidin]-4-yl)-6,7-dimethoxy-1,2,3,4-tetrahydro-1,4-epiminonaphthalene], for which the pEC50 was 6.00.

As for `COc1cc2c(cc1OC)C1CCC2N1c1nc(-c2ncccn2)ncc1C` [Example 88, 6,7-Dimethoxy-9-(5-methyl-[2,2′-bipyrimidin]-4-yl)-1,2,3,4-tetrahydro-1,4-epiminonaphthalene], the pEC50 is 5.70.

Turning to `CCC1c2cc(OC)c(OC)cc2CN1c1nc(-c2ncccn2)nc2ccoc12` (centres unmarked) [Example 91, 4-(1-Ethyl-5,6-dimethoxyisoindolin-2-yl)-2-(pyrimidin-2-yl)furo[3,2-d]pyrimidine], the pEC50 was 6.82.

Take `CCC1c2cc(OC)c(OC)cc2CN1c1nc(-c2ncccn2)nc2c1COC2` (centres unmarked) [Example 92, 4-(1-Ethyl-5,6-dimethoxyisoindolin-2-yl)-2-(pyrimidin-2-yl)-5,7-dihydrofuro[3,4-d]pyrimidine]: the pEC50 is 6.74.

Take `CCC1c2cc(OC)c(OC)cc2CN1c1nc(-c2ncccn2)nc2scnc12` (centres unmarked) [Example 93, 7-(1-Ethyl-5,6-dimethoxy-isoindolin-2-yl)-5-pyrimidin-2-yl-thiazolo[5,4-d]pyrimidine]: the pEC50 was 6.70.

Consider `CCC1c2cc(OC)c(OC)cc2CN1c1nc(-c2ncccn2)nc2c1CCC2` (centres unmarked) [Example 94, 4-(1-Ethyl-5,6-dimethoxy-isoindolin-2-yl)-2-pyrimidin-2-yl-6,7-dihydro-5H-cyclopenta[d]pyrimidine], for which the pEC50 is 6.46.

With `CCC1c2cc(F)c(F)cc2CN1c1ccnc(C(=O)O)n1` (centres unmarked) [Example 95, 4-(1-Ethyl-5,6-difluoroisoindolin-2-yl)pyrimidine-2-carboxylic Acid], the pEC50 was 5.70.

On to `CCC1c2cc(F)c(OC)cc2CN1c1ccnc(C(=O)O)n1` (centres unmarked) [Example 96, 4-(1-Ethyl-6-fluoro-5-methoxyisoindolin-2-yl)pyrimidine-2-carboxylic Acid], for which the negative-log EC50 (pEC50) was 5.92.

Regarding `CCC1c2cc(OC)c(OC)cc2CN1c1cnc(C(=O)O)nc1` (centres unmarked) [Example 97, 5-(1-Ethyl-5,6-dimethoxyisoindolin-2-yl)pyrimidine-2-carboxylic Acid], the pEC50 was 5.30.

Turning to `CCC1c2cc(F)c(OC)cc2CN1c1cnc(C(=O)O)nc1` (centres unmarked) [Example 98, 5-(1-Ethyl-6-fluoro-5-methoxyisoindolin-2-yl)pyrimidine-2-carboxylic Acid], the pEC50 was 6.62.

For `CCC1c2cc(F)c(OC)cc2CN1c1cnc(C(=O)NS(C)(=O)=O)nc1` (centres unmarked) [Example 101, 5-(1-Ethyl-6-fluoro-5-methoxyisoindolin-2-yl)-N-(methylsulfonyl)pyrimidine-2-carboxamide], the pEC50 was 6.19.

For `CCC1c2cc(F)c(OC)cc2CN1c1ccnc(C(=O)NS(C)(=O)=O)n1` (centres unmarked) [Example 104, 4-(1-Ethyl-6-fluoro-5-methoxyisoindolin-2-yl)-N-(methylsulfonyl)pyrimidine-2-carboxamide], the pEC50 was 5.30.

`CCC1c2cc(F)c(OC)cc2CN1c1cnc(C(=O)Nc2nccn2C)nc1` (centres unmarked) [Example 105, 5-(1-Ethyl-6-fluoro-5-methoxyisoindolin-2-yl)-N-(1-methyl-1H-imidazol-2-yl)pyrimidine-2-carboxamide]: the pEC50 was 5.22.

Turning to `CCC1c2cc(F)c(OC)cc2CN1c1cnc(C(=O)Nc2ccccn2)nc1` (centres unmarked) [Example 106, 5-(1-Ethyl-6-fluoro-5-methoxyisoindolin-2-yl)-N-(pyridin-2-yl)pyrimidine-2-carboxamide], the pEC50 is 5.70.

As to `O=c1[nH]cccc1-c1nccc(N2CCc3cc(F)c(F)cc3C2)n1` [Example 111, 3-[4-(6,7-Difluoro-3,4-dihydro-1H-isoquinolin-2-yl)pyrimidin-2-yl]pyridin-2-ol], the pEC50 was 4.34.

Take `CCC1c2ccc(F)c(F)c2CCN1c1cc(=O)c(C(=O)O)c[nH]1` (centres unmarked) [Example 112, 6-(1-Ethyl-5,6-difluoro-3,4-dihydro-1H-isoquinolin-2-yl)-4-hydroxy-pyridine-3-carboxylic Acid]: the pEC50 is 4.96.

For the molecule `CCC1c2ccc(F)c(F)c2CCN1c1cnc(C(=O)O)nc1` (centres unmarked) [Example 113, 5-(1-Ethyl-5,6-difluoro-3,4-dihydro-1H-isoquinolin-2-yl)pyrimidine-2-carboxylic Acid], the pEC50 was 5.70.

For the molecule `CCC1c2cc(F)c(OC)cc2CCN1c1cnc(C(N)=O)nc1` (centres unmarked) [Example 118, 5-(1-Ethyl-7-fluoro-6-methoxy-3,4-dihydro-1H-isoquinolin-2-yl)pyrimidine-2-carboxamide], the pEC50 was 6.28.

As to `CCC1c2cc(F)c(F)cc2CN1c1cnc(C(N)=O)nc1` (centres unmarked) [Example 119, 5-(1-Ethyl-5,6-difluoroisoindolin-2-yl)pyrimidine-2-carboxamide], the pEC50 was 4.38.

With `CCC1c2cc(F)c(OC)cc2CCN1c1ccnc(C(N)=O)n1` (centres unmarked) [Example 120, 4-(1-Ethyl-7-fluoro-6-methoxy-3,4-dihydro-1H-isoquinolin-2-yl)pyrimidine-2-carboxamide], the pEC50 is 4.85.

Turning to `CCC1c2cc(F)c(F)cc2CN1c1ccnc(C(N)=O)n1` (centres unmarked) [Example 121, 4-(1-Ethyl-5,6-difluoroisoindolin-2-yl)pyrimidine-2-carboxamide], the pEC50 is 4.74.

For the molecule `CCC1c2ccccc2CCN1c1cnc2c(ccc3cccnc32)c1` (centres unmarked) [Example 122, 3-(1-Ethyl-3,4-dihydroisoquinolin-2(1H)-yl)-1,10-phenanthroline], the negative-log EC50 (pEC50) is 5.92.

As to `CC1c2ccc(F)c(F)c2CCN1c1cnc2c(ccc3cccnc32)c1` (centres unmarked) [Example 123, 3-(5,6-Difluoro-1-methyl-3,4-dihydroisoquinolin-2(1H)-yl)-1,10-phenanthroline], the pEC50 was 6.36.
